From publication PMC9098912, “Molecular basis for inhibiting human glucose transporters by exofacial inhibitors” (Nature Communications, 2022)
Where a chain is given by its changes, count along the chain named.

Tests used:
WT GLUT3 = target: T1, WT GLUT3 (Homo sapiens, UniProt P11169, N43T); experiment: Microscale thermophoresis (MST) binding assay; parameters: Figure 1e middle: MST binding curve, Mean / Figure 1e right: MST binding curve, Mean / Figure 2c: MST binding curve, Mean: unit not given here; conditions: for Figure 2c: MST binding curve, Mean: GLUT3, log[SA47]
T1 construct: His10 (N); made in house; host or cells: Sf9 insect cells (baculovirus)
T1 sequence (P11169 1-496 N43T): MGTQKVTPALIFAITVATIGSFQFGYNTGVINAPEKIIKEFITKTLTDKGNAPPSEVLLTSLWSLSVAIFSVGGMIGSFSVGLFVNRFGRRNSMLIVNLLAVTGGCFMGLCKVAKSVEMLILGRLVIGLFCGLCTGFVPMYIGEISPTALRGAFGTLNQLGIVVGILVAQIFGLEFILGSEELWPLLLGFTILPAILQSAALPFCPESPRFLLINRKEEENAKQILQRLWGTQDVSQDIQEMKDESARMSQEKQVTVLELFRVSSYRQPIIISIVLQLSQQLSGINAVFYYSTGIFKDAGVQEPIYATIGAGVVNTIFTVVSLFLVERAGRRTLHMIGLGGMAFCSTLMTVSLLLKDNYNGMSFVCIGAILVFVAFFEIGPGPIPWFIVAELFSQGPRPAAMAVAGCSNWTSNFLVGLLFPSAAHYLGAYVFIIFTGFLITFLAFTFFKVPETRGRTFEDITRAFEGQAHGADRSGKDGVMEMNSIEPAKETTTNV
Procedure: (§1) All mutants were generated by standard PCR-based strategy.
(§2) Inhibitors with serial dilutions were mixed with indicated protein. […] MST analyses were conducted on a Monolith NT. […] The MST data was analyzed by Monolith NT.115.

GLUT3 F70A = GLUT3 F70A (Homo sapiens, UniProt P11169, F70A/N43T); experiment: biochemical
Chain of GLUT3 F70A (P11169 whole entry N43T/F70A, the tested form may be a part): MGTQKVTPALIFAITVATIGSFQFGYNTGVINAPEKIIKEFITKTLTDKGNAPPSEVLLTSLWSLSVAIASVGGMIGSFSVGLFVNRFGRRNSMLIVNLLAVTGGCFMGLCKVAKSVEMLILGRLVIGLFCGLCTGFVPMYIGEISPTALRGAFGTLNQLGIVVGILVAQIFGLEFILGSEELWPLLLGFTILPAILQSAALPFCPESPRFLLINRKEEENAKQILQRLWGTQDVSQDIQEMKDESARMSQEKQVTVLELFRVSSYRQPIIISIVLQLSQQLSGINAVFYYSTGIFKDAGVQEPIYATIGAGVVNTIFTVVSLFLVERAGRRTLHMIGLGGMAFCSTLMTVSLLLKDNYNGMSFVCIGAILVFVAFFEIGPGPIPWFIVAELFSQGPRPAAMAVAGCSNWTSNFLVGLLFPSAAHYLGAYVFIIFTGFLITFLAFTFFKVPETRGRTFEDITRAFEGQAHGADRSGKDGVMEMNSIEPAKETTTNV
Procedure: The recombinant human glucose transporter GLUT1(N45T) and E. coli (strain O157:H7) D-xylose:proton symporter XylE were expressed and purified as described previously[17],[26]. […] In brief, the cDNA of human GLUT3 was cloned into a modified pFastBac vector (Invitrogen) fused with an N-terminal His10 tag. All mutants were generated by standard PCR-based strategy.
as §2

GLUT3 T28A = target: T2, GLUT3 T28A (Homo sapiens, UniProt P11169, N43T/T28A); experiment: Binding of SA47 to GLUT3 variant; conditions: single point mutation T28A
T2 construct: His10 (N); made in house; host or cells: Sf9 insect cells (baculovirus)
T2 sequence (P11169 1-496 T28A/N43T): T1 sequence (P11169 1-496 N43T) with T28A

[1] = target: T3, human glucose transporter GLUT1(N45T) (Homo sapiens, UniProt P11166, N45T); experiment: Proteoliposome-based counterflow assay, inhibition of D-[2-3H]-glucose transport; type: biochemical; conditions: GLUT1
T3 construct: made in house
T3 sequence (P11166 1-492 N45T): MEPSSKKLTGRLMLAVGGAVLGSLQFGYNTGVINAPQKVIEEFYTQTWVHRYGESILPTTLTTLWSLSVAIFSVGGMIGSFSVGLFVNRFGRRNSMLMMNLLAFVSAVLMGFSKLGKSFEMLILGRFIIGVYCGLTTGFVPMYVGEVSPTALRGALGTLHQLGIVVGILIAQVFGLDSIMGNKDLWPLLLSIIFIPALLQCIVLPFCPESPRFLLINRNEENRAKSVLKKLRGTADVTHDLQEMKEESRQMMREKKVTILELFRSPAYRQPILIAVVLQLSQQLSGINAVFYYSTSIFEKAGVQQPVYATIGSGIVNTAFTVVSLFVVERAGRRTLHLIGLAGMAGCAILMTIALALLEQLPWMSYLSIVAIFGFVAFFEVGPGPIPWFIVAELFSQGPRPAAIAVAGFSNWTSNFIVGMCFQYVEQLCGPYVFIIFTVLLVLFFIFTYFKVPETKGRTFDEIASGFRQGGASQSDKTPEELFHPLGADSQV
Procedure: as §1
(§3) All counterflow assays were performed at 25 °C. […] Liposome without protein was used as negative control.
(§4) All experiments were repeated at least three times.

human GLUT3(N43T) = target: T4, human GLUT3(N43T) (Homo sapiens, UniProt P11169, N43T); experiment: as above; type: biochemical
T4 construct: His10 (N); made in house; host or cells: Sf9 insect cells (baculovirus)
T4 sequence (P11169 1-496 N43T): T1 sequence (P11169 1-496 N43T)
Procedure: as §1, §3, §4

GLUT3 N315A = target: T5, GLUT3 N315A (Homo sapiens, UniProt P11169, N315A/N43T); experiment: MST binding assay, GLUT3 variant; conditions: read-out: Kd of SA47
T5 construct: His10 (N); made in house; host or cells: Sf9 insect cells (baculovirus)
T5 sequence (P11169 1-496 N43T/N315A): T1 sequence (P11169 1-496 N43T) with N315A
Procedure: as §1, §2

What does the source list for COC(=O)CCNCc1ccccc1-n1ncc2c(N3CCN(c4cc(F)ccc4OC)CC3)ncnc21 [SA47]?
Figure 2c: MST binding curve, Mean (WT GLUT3; M -4.30103): 93.1623; Figure 2c: MST binding curve, Mean (WT GLUT3; M -4.60206): 97.5688; Figure 2c: MST binding curve, Mean (WT GLUT3; M -4.90309): 103.147; Figure 2c: MST binding curve, Mean (WT GLUT3; M -5.20412): 93.0436; Figure 2c: MST binding curve, Mean (WT GLUT3; M -5.50515): 92.2406; Figure 2c: MST binding curve, Mean (WT GLUT3; M -5.80618): 84.0843; Figure 2c: MST binding curve, Mean (WT GLUT3; M -6.10721): 63.9676; Figure 2c: MST binding curve, Mean (WT GLUT3; M -6.40824): 36.3211; Figure 2c: MST binding curve, Mean (WT GLUT3; M -7.0103): 13.9692; Figure 2c: MST binding curve, Mean (WT GLUT3; M -7.31133): 8.298; Figure 2c: MST binding curve, Mean (WT GLUT3; M -7.61236): 1.1474; Figure 2c: MST binding curve, Mean (WT GLUT3; M -7.91339): 0.7084; Figure 2c: MST binding curve, Mean (WT GLUT3; M -8.21442): 2.7164; Figure 2c: MST binding curve, Mean (WT GLUT3; M -8.51545): 2.4811; Figure 2c: MST binding curve, Mean (WT GLUT3; M -8.81648): 1.1039; Kd (WT GLUT3; WT GLUT3): 0.317 ± 0.0472 µM; Kd (GLUT3 F70A): 1.5 ± 0.2 µM; SA47 binding to GLUT3 T28A (GLUT3 T28A): abolished the binding; IC50 [1]: 0.331 ± 0.0383 µM; inhibition at 160 µM ([1]; SA47 at 160 μM): ~85%; IC50 (human GLUT3(N43T)): 0.823 ± 0.138 µM; inhibition at 160 µM (human GLUT3(N43T); SA47 at 160 μM): ~85%; Kd (GLUT3 N315A): 9.5 ± 2.2 µM
